{"source": "patent US12594268B2", "about": "“Methods of treating Fabry disease in patients having a mutation in the GLA gene” (Amicus Therapeutics, Inc., priority 2018, dated 2026)", "type_in_all_cases": "cell-based", "key": {"[1]": {"target": "T1, α-Gal A mutant form N408Y (Homo sapiens, UniProt P06280, N408Y)", "T1 construct": "expressed in transfected cells; host or cells: HEK-293", "T1 sequence (P06280 32-429 N408Y)": "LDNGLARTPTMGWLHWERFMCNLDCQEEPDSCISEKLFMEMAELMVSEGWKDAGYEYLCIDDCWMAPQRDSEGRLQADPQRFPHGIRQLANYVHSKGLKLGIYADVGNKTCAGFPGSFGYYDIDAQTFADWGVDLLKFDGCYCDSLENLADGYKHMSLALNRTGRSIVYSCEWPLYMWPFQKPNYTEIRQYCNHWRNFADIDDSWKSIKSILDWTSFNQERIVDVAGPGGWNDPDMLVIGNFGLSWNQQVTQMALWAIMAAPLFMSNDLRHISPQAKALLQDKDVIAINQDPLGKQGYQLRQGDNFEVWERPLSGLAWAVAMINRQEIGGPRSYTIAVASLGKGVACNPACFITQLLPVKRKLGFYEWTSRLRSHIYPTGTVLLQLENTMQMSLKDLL", "test": "α-Gal A activity in lysates of transfected HEK-293 cells, N408Y", "protocol": "(§1) Baseline and 10 μM migalastat α-Gal A activity: Differences in the α-Gal A activity between lysates incubated in the absence and presence of 10 μM migalastat were determined using a one-tailed, Mann Whitney U test; an increase at 10 μM migalastat with a p<0.05 was considered significant.\n(§2) 10 μM migalastat α-Gal A activity (% WT)=(α-Gal A activity in mutant transfected cell lysates incubated with 10 μM migalastat÷α-Gal A activity in wild-type transfected cell lysates without migalastat)*100.\n(§3) Absolute increase (% WT)=is the 10 μM migalastat α-Gal A activity (% WT) minus the baseline α-Gal A activity (% WT).\n(§4) Relative increase is the 10 μM migalastat α-Gal A activity in mutant transfected cell lysates÷baseline α-Gal A activity in mutant transfected cell lysates incubated without migalastat."}, "[2]": {"target": "T2, α-Gal A mutant form K391E (Homo sapiens, UniProt P06280, K391E)", "T2 construct": "expressed in transfected cells; host or cells: HEK-293", "T2 sequence (P06280 32-429 K391E)": "T1 sequence (P06280 32-429 N408Y) with K360E, Y377N", "test": "α-Gal A activity in lysates of transfected HEK-293 cells, K391E", "protocol": "as §1, §2, §3, §4"}, "[3]": {"target": "T3, α-Gal A mutant form Y152D (Homo sapiens, UniProt P06280, Y152D)", "T3 construct": "expressed in transfected cells; host or cells: HEK-293", "T3 sequence (P06280 32-429 Y152D)": "T1 sequence (P06280 32-429 N408Y) with Y121D, Y377N", "test": "α-Gal A activity in lysates of transfected HEK-293 cells, Y152D", "protocol": "as §1, §2, §3, §4"}, "[4]": {"target": "T4, α-Gal A mutant form N320H (Homo sapiens, UniProt P06280, N320H)", "T4 construct": "expressed in transfected cells; host or cells: HEK-293", "T4 sequence (P06280 32-429 N320H)": "T1 sequence (P06280 32-429 N408Y) with N289H, Y377N", "test": "α-Gal A activity in lysates of transfected HEK-293 cells, N320H", "protocol": "as §1, §2, §3, §4"}, "[5]": {"target": "T5, α-Gal A mutant form Q330P (Homo sapiens, UniProt P06280, Q330P)", "T5 construct": "expressed in transfected cells; host or cells: HEK-293", "T5 sequence (P06280 32-429 Q330P)": "T1 sequence (P06280 32-429 N408Y) with Q299P, Y377N", "test": "α-Gal A activity in lysates of transfected HEK-293 cells, Q330P", "protocol": "as §1, §2, §3, §4"}, "[6]": {"settings": "10 μM migalastat minus baseline"}, "[7]": {"settings": "10 μM migalastat ÷ baseline activity"}, "[8]": {"settings": "HEK-293 lysates, 10 μM migalastat, 5 days, mean ± SEM"}}, "note": "Positions count from the first letter of the chain named."}
{"compound": "OC[C@H]1NC[C@H](O)[C@@H](O)[C@H]1O", "note": "[migalastat, (2R,3S,4R,5S)-2-(hydroxymethyl) piperdine-3,4,5-triol]", "values": [{"measurement": "Absolute increase (% WT)", "setting": "[1]; [6]", "result": 44.6, "unit": "% WT"}, {"measurement": "Relative increase", "setting": "[1]; [7]", "result": 2.09}, {"measurement": "10 μM migalastat α-Gal A activity", "setting": "[1]; [8]", "result": "23273 ± 2965", "unit": "nmol/mg/h"}, {"measurement": "10 μM migalastat α-Gal A activity (% WT)", "setting": "[1]; [8]", "result": "85.5 ± 7.7", "unit": "% WT"}, {"measurement": "Absolute increase (% WT)", "setting": "[2]; [6]", "result": 20.0, "unit": "% WT"}, {"measurement": "Relative increase", "setting": "[2]; [7]", "result": 2.03}, {"measurement": "10 μM migalastat α-Gal A activity", "setting": "[2]; [8]", "result": "15979 ± 1367", "unit": "nmol/mg/h"}, {"measurement": "10 μM migalastat α-Gal A activity (% WT)", "setting": "[2]; [8]", "result": "40.4 ± 2.9", "unit": "% WT"}, {"measurement": "Absolute increase (% WT)", "setting": "[3]; [6]", "result": 10.7, "unit": "% WT"}, {"measurement": "Relative increase", "setting": "[3]; [7]", "result": 2.75}, {"measurement": "10 μM migalastat α-Gal A activity", "setting": "[3]; [8]", "result": "6594 ± 294", "unit": "nmol/mg/h"}, {"measurement": "10 μM migalastat α-Gal A activity (% WT)", "setting": "[3]; [8]", "result": "16.7 ± 1.1", "unit": "% WT"}, {"measurement": "Absolute increase (% WT)", "setting": "[4]; [6]", "result": 32.2, "unit": "% WT"}, {"measurement": "Relative increase", "setting": "[4]; [7]", "result": 2.59}, {"measurement": "10 μM migalastat α-Gal A activity", "setting": "[4]; [8]", "result": "22149 ± 1050", "unit": "nmol/mg/h"}, {"measurement": "10 μM migalastat α-Gal A activity (% WT)", "setting": "[4]; [8]", "result": "52.9 ± 3.1", "unit": "% WT"}, {"measurement": "Absolute increase (% WT)", "setting": "[5]; [6]", "result": 24.4, "unit": "% WT"}, {"measurement": "Relative increase", "setting": "[5]; [7]", "result": 2.21}, {"measurement": "10 μM migalastat α-Gal A activity", "setting": "[5]; [8]", "result": "12375 ± 664", "unit": "nmol/mg/h"}, {"measurement": "10 μM migalastat α-Gal A activity (% WT)", "setting": "[5]; [8]", "result": "45.8 ± 1.9", "unit": "% WT"}]}
